Read-outs that look alike come from different tables or passages of the source.
What was measured:
[1] = tested on: modèle cellulaire de leucémie; settings: leukaemia cell model, literature value; cited from earlier work
[2] = tested on: souris B6D2F1/Jico; assay: Determination of the maximum tolerated dose (DMT); type: in vivo; settings: B6D2F1/Jico mice, single intraperitoneal administration, doses 2,5 to 160 mg/kg, survival over 14 days
Description: L'évaluation de la dose maximale tolérée a été réalisée chez des souris B6D2F1/Jico âgées de 4 à 6 semaines. Les composés ont été administrés par voie intrapéritonéale à des doses croissantes s'échelonnant de 2,5 à 160 mg/kg. La valeur de la DMT (exprimée en mg/kg) est déterminée à partir de l'observation du taux de survie des animaux sur une période de 14 jours après une administration unique du produit considéré. L'évolution pondérale des animaux est également suivie pendant cette période. Lorsque la valeur de la DMT est supérieure à 160 mg/kg, la valeur de la DMT est assimilée à 160 mg/kg par défaut.

[3] = tested on: 12 lignées tumorales humaines; assay: MTT colorimetric cytotoxicity test, all 12 tumour cell lines together; type: cell-based; settings: mean calculated from the cytotoxic activity on the 12 tumour cell lines; read-out: Cl 50 (the source's name)
Text: (§1) L'influence des composés de formules I et la sur les cellules néoplasiques a été évaluée à l'aide du test colorimétrique MTT. Le principe du test MTT est basé sur la réduction mitochondriale par les cellules vivantes métaboliquement actives du produit MTT (3-(4,5-diméthylthiazol-2-yl)-2,5 diphényltétrazolium bromide) de couleur jaune en un produit de couleur bleue, le formazan. La quantité de formazan ainsi obtenue est directement proportionnelle à la quantité de cellules vivantes présentes dans le (ou les) puit(s) de culture. Cette quantité de formazan est mesurée par spectrophotométrie.
(§2) Les lignées cellulaires sont maintenues en culture monocouche à 37°C dans des boîtes de culture à bouchon fermé contenant du milieu de base MEM 25 MM HEPES (Minimum Essential Medium). Ce milieu, adapté à la croissance d'une gamme de cellules variées diploïdes ou primaires de mammifères, est ensuite additionné : • d'une quantité de 5% de SVF (Sérum de Veau Foetal) décomplémenté à 56°C pendant 1 heure, • de 0,6 mg/ml de L-glutamine, • de 200 IU/ml de pénicilline, • de […] de streptomycine, • de 0,1 mg/ml de gentamicine.
Les 12 lignées cellulaires cancéreuses humaines utilisées ont été obtenues auprès de l'American Type Culture Collection (ATCC, Rockville, MD, USA). Ces 12 lignées cellulaires sont : • U-373MG (code ATCC : HTB-17) et U-87MG (code ATCC : HTB-14) qui sont deux glioblastomes, • SW1088 (code ATCC : HTB-12) qui est un astrocytome, • A549 (code ATCC : CCL-185) et A-427 (code ATCC : HTB-53) qui sont deux cancers du poumon non-à-petites-cellules, • HCT-15 (code ATCC : CCL-225) et LoVo (code ATCC : CCL-229) qui sont deux cancers colorectaux, • T-47D (code ATCC : HTB-133) et MCF7 (code ATCC : HTB-22) qui sont deux cancers du sein, • J82 (code ATCC : HTB-1) et T24 (code ATCC : HTB-4) qui sont deux cancers de la vessie, • PC-3 (code ATCC : CRL-1435) qui est un cancer de la prostate.
Au plan expérimental : 100 µl d'une suspension cellulaire contenant 20 000 à 50 000 (selon le type cellulaire utilisé) cellules/ml de milieu de culture sont ensemencés en plaques multi-puits de 96 puits à fond plat et sont mis à incuber à 37°C, sous atmosphère comprenant 5% de CO2 et 70% d'humidité. Au bout de 24 heures d'incubation, le milieu de culture est remplacé par 100 µl de milieu frais contenant soit les différents composés à tester à des concentrations variant de 10^-5 à 10^-10 M soit le solvant ayant servi à la mise en solution des produits à tester (condition contrôle). Après 72 heures d'incubation dans les conditions précédentes, le milieu de culture est remplacé par 100 µl d'une solution jaunâtre de MTT dissous à raison de 1 mg/ml dans du RPMI 1640. Les microplaques sont remises à incuber pendant 3 heures à 37°C puis centrifugées pendant 10 minutes à 400 g. La solution jaunâtre de MTT est éliminée et les cristaux de formazan bleu formés au niveau cellulaire sont dissous dans 100 µl de DMSO. Les microplaques sont ensuite mises sous agitation pendant 5 minutes. L'intensité de la coloration bleue résultant donc de la transformation du produit MTT jaune en formazan bleu par les cellules encore vivantes au terme de l'expérience est quantifiée par spectrophotométrie à l'aide d'un appareil de type DYNATECH IMMUNOASSAY SYSTEM aux longueurs d'onde de 570 nm et 630 nm correspondant respectivement aux longueurs d'ondes d'absorbance maximale du formazan et au bruit de fond. Un logiciel intégré au spectrophotomètre calcule les valeurs moyennes de densité optique ainsi que les valeurs de déviation standard (Dév. Std.) et d'erreur standard sur la moyenne (ESM).
L'activité inhibitrice de la croissance cellulaire des composés de formules I et la sur les différentes lignées cellulaires tumorales a été comparée à celle du produit naturel, l'ascididémine (CRL 8274). […]

[4] = tested on: SW1088; assay: MTT colorimetric cytotoxicity test, SW1088; type: cell-based, humaines; settings: SW1088, 72 h incubation, read-out: Concentrations inhibitrices (M) encadrant la valeur de la concentration inhibitrice 50 %
Text: as §1, §2
(§3) Les 12 lignées cellulaires cancéreuses humaines utilisées ont été obtenues auprès de l'American Type Culture Collection (ATCC, Rockville, MD, USA). […]
Au plan expérimental : 100 µl d'une suspension cellulaire contenant 20 000 à 50 000 (selon le type cellulaire utilisé) cellules/ml de milieu de culture sont ensemencés en plaques multi-puits de 96 puits à fond plat et sont mis à incuber à 37°C, sous atmosphère comprenant 5% de CO2 et 70% d'humidité. […] L'intensité de la coloration bleue résultant donc de la transformation du produit MTT jaune en formazan bleu par les cellules encore vivantes au terme de l'expérience est quantifiée par spectrophotométrie à l'aide d'un appareil de type DYNATECH IMMUNOASSAY SYSTEM aux longueurs d'onde de 570 nm et 630 nm correspondant respectivement aux longueurs d'ondes d'absorbance maximale du formazan et au bruit de fond. […]

[5] = tested on: J82; assay: MTT colorimetric cytotoxicity test, J82; type: cell-based, humaines; settings: J82, 72 h incubation, read-out: Concentrations inhibitrices (M) encadrant la valeur de la concentration inhibitrice 50 %
Text: as §1, §2, §3

[6] = tested on: PC-3; assay: MTT colorimetric cytotoxicity test, PC-3; type: cell-based, humaines; settings: Homo sapiens, PC-3, 72 h incubation, read-out: Concentrations inhibitrices (M) encadrant la valeur de la concentration inhibitrice 50 %
Text: as §1, §2, §3

[7] = tested on: LoVo; assay: MTT colorimetric cytotoxicity test, LoVo; type: cell-based, humaines; settings: Homo sapiens, 72 h incubation, read-out: Concentrations inhibitrices (M) encadrant la valeur de la concentration inhibitrice 50 %
Text: as §1, §2, §3

[8] = tested on: T24; assay: MTT colorimetric cytotoxicity test, T24; type: cell-based, humaines; settings: read-out: Concentrations inhibitrices (M) encadrant la valeur de la concentration inhibitrice 50 %
Text: as §1, §2, §3

[9] = tested on: U-373MG; assay: MTT colorimetric cytotoxicity test, U-373MG; type: cell-based, humaines; settings: 72 h incubation, read-out: Concentrations inhibitrices (M) encadrant la valeur de la concentration inhibitrice 50 %
Text: as §1, §2, §3

Compound | DMT [2] [mg/kg] | IC50 [3] [nM] | also measured
2-bromoleptoclinidone [CRL 8269, reference compound] | 40 | 120 | DE 50 [1]: 0.4 µg/mL
5-(2-chloroéthyl)amino-9H-quino[4,3,2de][1,10] phénanthrolin-9-one [CRL 8423] | >160 | 7 | 
5-(diméthylamino-2-éthyl)amino-9H-quino[4,3,2de][1,10] phénanthrolin-9-one [CRL 8419] | 40 | 60 | 
5-bis(2-chloroéthyl)amino-9H-quino[4,3,2de][1,10] phénanthrolin-9-one [CRL 8422] | >160 | 100 | 
5-chloro-9H-quino [4,3,2-de] [1,10] phénantrolin-9-one [CRL 8301] | >160 | 270 | 
9-H-quino[4,3,2-de][1,10]phénanthrolin-9-one [CRL 8274, reference compound] | 20 | 100 | 
CC(=O)c1ccc(Br)cc1NC1=CC(=O)c2ncccc2C1=O [CRL8268, 6-(2-acétyl-5-bromo-phénylamino)-quinoline-5,8 dione] |  |  | IC50 ([4]; Homo sapiens): > 1e-05 M
CC(=O)c1cc(C)ccc1NC1=CC(=O)c2ncccc2C1=O [CRL8322, 6-(2-acétyl-4-méthyl-phénylamino)-quinoline-5,8-dione] |  |  | IC50 ([4]; Homo sapiens): > 1e-05 M; IC50 ([5]; Homo sapiens): > 1e-05 M; IC50 [6]: > 1e-05 M; IC50 [7]: > 1e-05 M; IC50 ([8]; Homo sapiens, T-24, T24, 72 h incubation): > 1e-05 M
Cc1ccc2nc3c(c(C)c2c1)C(=O)c1ncccc1C3=O [CRL8324, 9,11-diméthyl-1,6-diaza-naphtacène-5,12-dione] |  |  | IC50 [4]: > 1e-05 M; IC50 [5]: > 1e-05 M; IC50 [9]: > 1e-05 M; IC50 ([8]; T24, 72 h incubation): > 1e-05 M
O=C1c2cccnc2-c2nccc3c2c1nc1ccc(NCc2ccccc2)cc13 [CRL 8241, 5-(benzylamino)-9H-quino[4,3,2-de][1,10] phénanthrolin-9-one] | >160 | 140 | 
O=C1c2nccc(Br)c2-c2nc3ccccc3c3ccnc1c23 [CRL 8248, 5-bromo-9H-quino[4,3,2-de] [1,10]phénantrolin-9-one] | >160 | 80 | 
COc1ccc2nc3c4c(nccc4c2c1)-c1ncccc1C3=O [CRL 8297, 5-méthoxy-9H-quino[4,3,2-de][1,10]phénanthrolin-9-one] | >160 | 90 | 
Cc1ccc2nc3c4c(nccc4c2c1)-c1ncccc1C3=O [CRL 8323, 5-méthyl-9H-quino [4,3,2-de][1,10] phénanthrolin-9-one] | 20 | 60 | 
CN(C)c1ccc2nc3c4c(nccc4c2c1)-c1ncccc1C3=O [CRL 8325, 5-(diméthylamino)-9H-quino[4,3,2-de][1,10]phénanthrolin-9-one] | >160 | 37 | 
Nc1ccnc2c1-c1nc3ccccc3c3ccnc(c13)C2=O [CRL 8347, 5-amino-9H-quino[4,3,2-de][1,10]phénanthtolin-9-one] | >160 | 21 | 
COc1ccnc2c1C(=O)c1nc3ccc(Br)cc3c3ccnc-2c13 [CRL 8389, 5-bromo-10-méthoxy-9H-quino[4,3,2-de][1,10]phénanthrolin-9-one] | >160 | 420 | 
CN(C)c1ccc2nc3c4c(nccc4c2c1)-c1ncccc1C3=O [CRL 8407, Chlorhydratede la 5-(diméthylamino)-9H-quino[4,3,2-de][1,10] phénanthrolin-9-one] | >160 | 22 | 
O=C1c2cccnc2-c2nccc3c2c1nc1ccc(NCc2ccccc2)cc13 [CRL 8416, Chlorhydratede la 5-(benzylamino)-9H-quino[4,3,2-de][1,10] phénanthrolin-9-one] | >160 | 80 | 
Chlorhydrate de la 5-(diméthylamino-2-éthyl)amino-9H-quino[4,3,2de][1,10] phénanthrolin-9-one [CRL 8418] | 40 | 110 | 
Chlorhydrate de la 5-amino-9H-quino[4,3,2-de][1,10]phénanthrolin-9-one [CRL 8406] | >160 | 60 | 
